# Tests used:
# [1] = system: P. yoelli nigeriensis (MDR II); assay: Blood schizontocidal action of arteether α/β formulation by rectal route in infected Swiss mice; format: in vivo, P. yoelli nigeriensis (MDR II) in Swiss mice
# Method: α,β-Arteether mixture dissolved in neutralized ground-nut oil was administered to P. yoelli nigeriewis (MDR II) infected mice at 10 mg/kg to 20 mg/kg dose from day 0 to day 2 (for 3 consecutive days) by intra-rectal route. Drug was administered with 0.05-0.25 ml oil (vehicle) in single dose or in 2 divided dose daily. Parasitaemia was recorded daily from tail blood smears stained with Giemsa stain and results are given as % parasitaemia (means±SD). […] Presumptive arteether rectal formulation or suppository administration can save mortality in severe/complicated cases. α/β Arteether rectal route controls the severity of infection and prevents mortality in severe complicated comatose malaria cases and will be specially useful in infants, children and those having frequent vomiting and can not be given oral formulation initially. […] Rectal route α/β arteether formulation remains 1st line of emergency treatment of comatose P. falciparum cases in areas of MDR.
# [2] = system: P. yoelli nigeriensis (MDR II); assay: Blood schizonticidal activity of oral arteether formulation prepared in DMSO-distilled water in infected Swiss mice; format: in vivo, P. yoelli nigeriensis (MDR II) in Swiss mice; conditions: for Bioavailability by oral route: suspension in DMSO/distilled water
# Method: Swiss mice 25±1 gm infected intraperitoneally with 1×10^7 parasitized rbcs were administered α/β formulation, prepared in DMSO (3-4 drop) and then suspended in distilled water by oral administration at various doses ranging between 40-100 mg/kg for 5 consecutive days.
# Parasitaemia was recorded periodically from tail blood smears upto 28 days of observation. Both 60 and 80 mg/kg×5 doses were able to eliminate the prasitaemia upto 28 days of observation and were curative. […] A very high dose is required for curative action against MDR of infection and its bioavailability by oral route as suspension in D.W. is low.
# [3] = system: P. yoelii nigeriensis (MDR II); assay: Blood schizonticidal activity of α/β arteether formulation in neutralized oil by oral route in infected Swiss mice; format: in vivo, P. yoelii nigeriensis (MDR II) in Swiss mice
# Method: Efficacy of oral administration of arteether formulation for control of blood induced multi-drug resistant P. yoebi nigerensis (MDR II) in Swiss mice (25±g) was evaluated. The mice was infected intraperitoneafly with 1×10^5 parasitized RBC, and drug treatment 10,15,20 and 30 mg/kg was given once daily for five consecutive days (starting from day 0 to day 4). Blood smears made from tail blood and stained with giemsa were examined periodically till 28 days of infection to record parasitaemia levels and number of surviving/cured mice till 28 days.
# P. knowlesi/P. fragile = conditions: intramuscular, rhesus monkey; cited from earlier work
# P. yoelii nigeriensis = conditions: intramuscular; chloroquine, mefloquine and quinine resistant strain; cited from earlier work
structure (smiles),measurement,setting,value
CCOC1O[C@@H]2O[C@@]3(C)CC[C@H]4[C@H](C)CC[C@@H]([C@H]1C)[C@@]24OO3 (stereo partly drawn) [α/β arteether],Drug absorption by rectal route,"[1]; neutralized ground-nut oil, rectal",fairly rapid
same,Parasitaemia (mean ± SD),"[1]; rectal, 10 mg/kg × 3 days in 2 divided doses at 6 hrs, Day 4",0.0%
same,Parasitaemia (mean ± SD),"[1]; rectal, 10 mg/kg × 3 days in 2 divided doses at 6 hrs, Day 5",0.0%
same,Parasitaemia (mean ± SD),"[1]; rectal, 10 mg/kg × 3 days in 2 divided doses at 6 hrs, Day 11",10.25 ± 10.0%
same,Parasitaemia (mean ± SD),"[1]; rectal, 10 mg/kg × 3 days in 2 divided doses at 6 hrs, Day 28",0.0%
same,Number of animals (in parenthesis),"[1]; rectal, 10 mg/kg × 3 days in 2 divided doses, Day 11, 8 at Day 5",4
same,Number of animals (in parenthesis),"[1]; rectal, 10 mg/kg × 3 days in 2 divided doses, Day 28, 8 at Day 5",1
same,Parasitaemia (mean ± SD),"[1]; rectal, 10 mg/kg × 3 days, Day 4",0.0002 ± 0.001%
same,Number of animals negative (-ve),"[1]; rectal, 10 mg/kg × 3 days, Day 4, of 8",6
same,Parasitaemia (mean ± SD),"[1]; rectal, 10 mg/kg × 3 days, Day 5",0.002 ± 0.080%
same,Number of animals negative (-ve),"[1]; rectal, 10 mg/kg × 3 days, Day 5, of 8",6
same,Parasitaemia (mean ± SD),"[1]; rectal, 10 mg/kg × 3 days, Day 11",0.0%
same,Number of animals (in parenthesis),"[1]; rectal, 10 mg/kg × 3 days, Day 11, 8 at Day 5",3
same,Parasitaemia (mean ± SD),"[1]; rectal, 10 mg/kg × 3 days, Day 28",0.0%
same,Number of animals (in parenthesis),"[1]; rectal, 10 mg/kg × 3 days, Day 28, 8 at Day 5",3
same,Parasitaemia (mean ± SD),"[1]; rectal, 15 mg/kg × 3 days in 2 divided doses at 6 hrs, Day 4",0.0%
same,Parasitaemia (mean ± SD),"[1]; rectal, 15 mg/kg × 3 days in 2 divided doses at 6 hrs, Day 5",0.0%
same,Parasitaemia (mean ± SD),"[1]; rectal, 15 mg/kg × 3 days in 2 divided doses at 6 hrs, Day 11",0.0%
same,Parasitaemia (mean ± SD),"[1]; rectal, 15 mg/kg × 3 days in 2 divided doses at 6 hrs, Day 28",0.0%
same,Number of animals (in parenthesis),"[1]; rectal, 15 mg/kg × 3 days in 2 divided doses, Day 11, 8 at Day 5",4
same,Number of animals (in parenthesis),"[1]; rectal, 15 mg/kg × 3 days in 2 divided doses, Day 28, 8 at Day 5",4
same,Parasitaemia (mean ± SD),"[1]; rectal, 15 mg/kg × 3 days, Day 4",0.0%
same,Parasitaemia (mean ± SD),"[1]; rectal, 15 mg/kg × 3 days, Day 5",0.0%
same,Parasitaemia (mean ± SD),"[1]; rectal, 15 mg/kg × 3 days, Day 11",0.0%
same,Number of animals (in parenthesis),"[1]; rectal, 15 mg/kg × 3 days, Day 11, 8 at Day 5",4
same,Parasitaemia (mean ± SD),"[1]; rectal, 15 mg/kg × 3 days, Day 28",0.0%
same,Number of animals (in parenthesis),"[1]; rectal, 15 mg/kg × 3 days, Day 28, 8 at Day 5",4
same,Parasitaemia (mean ± SD),"[1]; rectal, 20 mg/kg × 3 days in 2 divided doses at 6 hrs, Day 4",0.0%
same,Parasitaemia (mean ± SD),"[1]; rectal, 20 mg/kg × 3 days in 2 divided doses at 6 hrs, Day 5",0.0%
same,Parasitaemia (mean ± SD),"[1]; rectal, 20 mg/kg × 3 days in 2 divided doses at 6 hrs, Day 11",0.0%
same,Parasitaemia (mean ± SD),"[1]; rectal, 20 mg/kg × 3 days in 2 divided doses at 6 hrs, Day 28",0.0%
same,Number of animals (in parenthesis),"[1]; rectal, 20 mg/kg × 3 days in 2 divided doses, Day 11, 8 at Day 5",6
same,Number of animals (in parenthesis),"[1]; rectal, 20 mg/kg × 3 days in 2 divided doses, Day 28, 8 at Day 5",6
same,Parasitaemia (mean ± SD),"[1]; rectal, 20 mg/kg × 3 days, Day 4",0.0%
same,Parasitaemia (mean ± SD),"[1]; rectal, 20 mg/kg × 3 days, Day 5",0.0%
same,Parasitaemia (mean ± SD),"[1]; rectal, 20 mg/kg × 3 days, Day 11",0.0%
same,Number of animals (in parenthesis),"[1]; rectal, 20 mg/kg × 3 days, Day 11, 8 at Day 5",5
same,Parasitaemia (mean ± SD),"[1]; rectal, 20 mg/kg × 3 days, Day 28",0.0%
same,Number of animals (in parenthesis),"[1]; rectal, 20 mg/kg × 3 days, Day 28, 8 at Day 5",5
same,Suppression of parasitaemia after treatment,"[1]; rectal, 10.0, 15.0 and 20.0 mg/kg, upto 5 days",suppressed the parasitaemia
same,minimal effective dose,"[2]; Plasmodium yoelii, po, read-out: Curative dose / dose needed for total clearance",60 mg/kg
same,Parasitaemia,"[2]; oral, DMSO-distilled water, 40 mg/kg × 5, Day 4",Nil
same,Parasitaemia,"[2]; oral, DMSO-distilled water, 40 mg/kg × 5, Day 7",Nil
same,Parasitaemia,"[2]; oral, DMSO-distilled water, 40 mg/kg × 5, Day 10",3.86%
same,Parasitaemia,"[2]; oral, DMSO-distilled water, 40 mg/kg × 5, Day 14",3.5 ± 8.5%
same,Parasitaemia,"[2]; oral, DMSO-distilled water, 40 mg/kg × 5, Day 21",Nil
same,Parasitaemia,"[2]; oral, DMSO-distilled water, 40 mg/kg × 5, Day 28",Nil
same,Suppression of parasitaemia,"[2]; oral, DMSO-distilled water, 40 mg/kg × 5, MDR strain","transient suppression of parasitaemia, but was not curative"
same,Parasitaemia,"[2]; oral, DMSO-distilled water, 60 mg/kg × 5, Day 4",Nil
same,Parasitaemia,"[2]; oral, DMSO-distilled water, 60 mg/kg × 5, Day 7",Nil
same,Parasitaemia,"[2]; oral, DMSO-distilled water, 60 mg/kg × 5, Day 10",Nil
same,Parasitaemia,"[2]; oral, DMSO-distilled water, 60 mg/kg × 5, Day 14",Nil
same,Parasitaemia,"[2]; oral, DMSO-distilled water, 60 mg/kg × 5, Day 21",Nil
same,Parasitaemia,"[2]; oral, DMSO-distilled water, 60 mg/kg × 5, Day 28",Nil
same,Parasitaemia,"[2]; oral, DMSO-distilled water, 80 mg/kg × 5, Day 4",Nil
same,Parasitaemia,"[2]; oral, DMSO-distilled water, 80 mg/kg × 5, Day 7",Nil
same,Parasitaemia,"[2]; oral, DMSO-distilled water, 80 mg/kg × 5, Day 10",Nil
same,Parasitaemia,"[2]; oral, DMSO-distilled water, 80 mg/kg × 5, Day 14",Nil
same,Parasitaemia,"[2]; oral, DMSO-distilled water, 80 mg/kg × 5, Day 21",Nil
same,Parasitaemia,"[2]; oral, DMSO-distilled water, 80 mg/kg × 5, Day 28",Nil
same,Parasitaemia,"[2]; oral, DMSO-distilled water, 100 mg/kg × 5, Day 4",Nil
same,Parasitaemia,"[2]; oral, DMSO-distilled water, 100 mg/kg × 5, Day 7",Nil
same,Parasitaemia,"[2]; oral, DMSO-distilled water, 100 mg/kg × 5, Day 10",Nil
same,Parasitaemia,"[2]; oral, DMSO-distilled water, 100 mg/kg × 5, Day 14",Nil
same,Parasitaemia,"[2]; oral, DMSO-distilled water, 100 mg/kg × 5, Day 21",Nil
same,Parasitaemia,"[2]; oral, DMSO-distilled water, 100 mg/kg × 5, Day 28",Nil
same,Curative action (elimination of parasitaemia),"[2]; oral, DMSO-distilled water, 60 and 80 mg/kg × 5, upto 28 days",curative
same,Bioavailability by oral route,[2],low
same,Bioavailability by oral route,[2]; listed as arteether α/β,of lower order
same,Parasitaemia (mean ± SD),"[3]; 10 mg/kg × 5 days, Day 6",0.9 ± 1.0%
same,Parasitaemia (mean ± SD),"[3]; 10 mg/kg × 5 days, Day 9",41 ± 32.8%
same,Parasitaemia (mean ± SD),"[3]; 10 mg/kg × 5 days, Day 12",0.0%
same,Number of mice surviving,"[3]; 10 mg/kg × 5 days, Day 12, of 8",2
same,Parasitaemia (mean ± SD),"[3]; 10 mg/kg × 5 days, Day 14",0.0%
same,Number of mice surviving,"[3]; 10 mg/kg × 5 days, Day 14, of 8",2
same,Parasitaemia (mean ± SD),"[3]; 10 mg/kg × 5 days, Day 28",0.0%
same,Number of mice surviving,"[3]; 10 mg/kg × 5 days, Day 28, of 8",2
same,Parasitaemia (mean ± SD),"[3]; 15 mg/kg × 5 days, Day 6",0.0%
same,Parasitaemia (mean ± SD),"[3]; 15 mg/kg × 5 days, Day 9",5.12 ± 5.7%
same,Parasitaemia (mean ± SD),"[3]; 15 mg/kg × 5 days, Day 12",0.0%
same,Number of mice surviving,"[3]; 15 mg/kg × 5 days, Day 12, of 8",4
same,Parasitaemia (mean ± SD),"[3]; 15 mg/kg × 5 days, Day 14",0.0%
same,Number of mice surviving,"[3]; 15 mg/kg × 5 days, Day 14, of 8",4
same,Parasitaemia (mean ± SD),"[3]; 15 mg/kg × 5 days, Day 28",0.0%
same,Number of mice surviving,"[3]; 15 mg/kg × 5 days, Day 28, of 8",4
same,Parasitaemia (mean ± SD),"[3]; 20 mg/kg × 5 days, Day 6",0.0%
same,Parasitaemia (mean ± SD),"[3]; 20 mg/kg × 5 days, Day 9",3.75 ± 10.6%
same,Parasitaemia (mean ± SD),"[3]; 20 mg/kg × 5 days, Day 12",18.8 ± 32.5%
same,Parasitaemia (mean ± SD),"[3]; 20 mg/kg × 5 days, Day 14",0.0%
same,Number of mice surviving,"[3]; 20 mg/kg × 5 days, Day 14, of 8",5
same,Parasitaemia (mean ± SD),"[3]; 20 mg/kg × 5 days, Day 28",0.0%
same,Number of mice surviving,"[3]; 20 mg/kg × 5 days, Day 28, of 8",5
same,Parasitaemia (mean ± SD),"[3]; 30 mg/kg × 5 days, Day 6",0.0%
same,Parasitaemia (mean ± SD),"[3]; 30 mg/kg × 5 days, Day 9",0.0%
same,Parasitaemia (mean ± SD),"[3]; 30 mg/kg × 5 days, Day 12",0.0%
same,Parasitaemia (mean ± SD),"[3]; 30 mg/kg × 5 days, Day 14",0.0%
same,Number of mice surviving,"[3]; 30 mg/kg × 5 days, Day 14, of 8",8
same,Parasitaemia (mean ± SD),"[3]; 30 mg/kg × 5 days, Day 28",0.0%
same,Number of mice surviving,"[3]; 30 mg/kg × 5 days, Day 28, of 8",8
same,Cure of experimental cerebral malaria,P. knowlesi/P. fragile,cures experimental cerebral malaria infections
same,Antimalarial activity,P. yoelii nigeriensis,shows antimalarial activity
